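These data come from cells grown in 96-well plates and exposed to compound for 48 hours at five concentrations. At the GI50, growth is halved.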 The source made the active and inactive calls. Rule as the data show it: active = GI50 up to about 1.1 µM and inactive = higher.
How the values were obtained:
Assay in all cases: NCI anticancer screen, dose series, 48 h
A498 = system: A498
HCT-15 = system: HCT-15
U-251 = system: U-251
SNB-75 = system: SNB-75
SK-MEL-5 = system: SK-MEL-5
HCT-116 = system: HCT-116
TK-10 = system: TK-10
SK-MEL-2 = system: SK-MEL-2
BT-549 = system: BT-549
SF-295 = system: SF-295
M14 = system: M14
COLO 205 = system: COLO 205
DU-145 = system: DU-145
HOP-92 = system: HOP-92
HCC 2998 = system: HCC 2998
EKVX = system: EKVX
SK-OV-3 = system: SK-OV-3
Hs-578T = system: Hs-578T
PC-3 = system: PC-3
SR = system: SR

Measured: GI50

CC1=NN(c2nc(N)nc(CN3CCOCC3)n2)C(C)(C)C1
inactive: A498 > 100 µM | U-251 > 100 µM | SNB-75 > 100 µM | SK-MEL-5 73.3 µM | HCT-116 > 100 µM | TK-10 > 100 µM | SK-MEL-2 > 100 µM | BT-549 > 100 µM | SF-295 > 100 µM | M14 > 100 µM | COLO 205 60.4 µM | DU-145 > 100 µM | HOP-92 33.2 µM | HCC 2998 > 100 µM | EKVX 31.8 µM | SK-OV-3 > 100 µM | Hs-578T > 100 µM | PC-3 > 100 µM | SR 30.1 µM
> 100 µM: HCT-15

COC(=O)c1ccc2c(c1)C(NC(C)=O)CCc1cc(OC)c(OC)c(OC)c1-2 (stereo not given)
inactive: TK-10 16.9 µM | EKVX 4.19 µM
active: A498 0.0133 µM | U-251 < 0.0117 µM | SNB-75 0.0129 µM | SK-MEL-5 0.013 µM | HCT-116 < 0.0114 µM | SK-MEL-2 0.0208 µM | BT-549 0.104 µM | SF-295 0.0117 µM | M14 0.0153 µM | COLO 205 0.0119 µM | DU-145 0.014 µM | HOP-92 0.0391 µM | HCC 2998 0.0327 µM | SK-OV-3 0.0188 µM | Hs-578T 0.0122 µM | PC-3 < 0.0127 µM | SR 0.0123 µM
0.0366 µM: HCT-15

OC1C2[C@@H](O)CCCN2C[C@@H](O)[C@H]1O (stereo not given in full)
inactive: A498 > 100 µM | U-251 > 100 µM | SNB-75 > 100 µM | SK-MEL-5 > 100 µM | HCT-116 > 100 µM | TK-10 > 100 µM | SK-MEL-2 > 100 µM | BT-549 > 100 µM | SF-295 > 100 µM | M14 > 100 µM | COLO 205 > 100 µM | DU-145 > 100 µM | HOP-92 > 100 µM | HCC 2998 > 100 µM | EKVX > 100 µM | SK-OV-3 > 100 µM | Hs-578T > 100 µM | PC-3 > 100 µM | SR > 100 µM
> 100 µM: HCT-15

CC1=C2O[C@]3(O)C=C2C(=C(O)C1=O)[C@@H]1O[C@H](CC[C@H](C)/C=C(\C)C[C@@H](C)C[C@@H]3C)[C@H](C)[C@H](O)[C@H]1C [KENDOMYCIN]
active: U-251 0.326 µM | SNB-75 0.394 µM | SK-MEL-5 0.498 µM | HCT-116 0.176 µM | TK-10 0.155 µM | SK-MEL-2 0.247 µM | BT-549 0.331 µM | M14 0.161 µM | COLO 205 0.125 µM | DU-145 0.265 µM | HOP-92 0.13 µM | HCC 2998 0.167 µM | EKVX 0.356 µM | SK-OV-3 1.12 µM | Hs-578T 0.289 µM | PC-3 0.269 µM | SR 0.135 µM
0.124 µM: HCT-15
inactive: A498 1.58 µM | SF-295 1.22 µM

COc1ccc(C(C)c2cc3c(cc2OC)OCO3)cc1 (stereo not given)
0.0723 µM: HCT-15
active: A498 0.646 µM | U-251 0.229 µM | SNB-75 0.06 µM | SK-MEL-5 0.0659 µM | HCT-116 0.111 µM | SK-MEL-2 0.0767 µM | SF-295 0.0611 µM | M14 0.0738 µM | COLO 205 0.135 µM | DU-145 0.231 µM | HCC 2998 0.193 µM | SK-OV-3 0.2 µM | Hs-578T 0.0207 µM | PC-3 0.0715 µM | SR 0.881 µM
inactive: TK-10 8.95 µM | BT-549 51.8 µM | HOP-92 1.45 µM | EKVX 17.4 µM

O=C(Nc1sccc1S(=O)(=O)c1ccc(Cl)cc1)c1ccc(Cl)cc1
inactive: A498 > 100 µM | U-251 31 µM | SNB-75 31.8 µM | SK-MEL-5 74.3 µM | HCT-116 > 100 µM | TK-10 50.8 µM | SK-MEL-2 59.8 µM | BT-549 > 100 µM | SF-295 34 µM | M14 > 100 µM | COLO 205 > 100 µM | DU-145 > 100 µM | HOP-92 73.1 µM | HCC 2998 > 100 µM | EKVX 31 µM | SK-OV-3 52.6 µM | Hs-578T 51.3 µM | PC-3 25.9 µM | SR > 100 µM
> 100 µM: HCT-15

CC1(C)OC2C(O)C(CO)OC2(C(F)F)O1 (stereo not given)
> 100 µM: HCT-15
inactive: A498 > 100 µM | U-251 > 100 µM | SNB-75 > 100 µM | SK-MEL-5 > 85.3 µM | HCT-116 > 100 µM | TK-10 > 100 µM | SK-MEL-2 > 100 µM | BT-549 > 100 µM | SF-295 > 100 µM | M14 > 100 µM | COLO 205 > 100 µM | DU-145 > 100 µM | HOP-92 > 100 µM | HCC 2998 > 100 µM | EKVX > 100 µM | SK-OV-3 > 100 µM | Hs-578T > 100 µM | PC-3 > 100 µM | SR > 100 µM

CC(=O)OC1CC(n2cc(F)c(=O)[nH]c2=O)OC1CO (stereo not given)
inactive: U-251 5.69 µM | SNB-75 3.98 µM | SK-MEL-5 1.49 µM | HCT-116 2.51 µM | TK-10 15.9 µM | SK-MEL-2 > 28.8 µM | BT-549 5.5 µM | M14 2.16 µM | COLO 205 8.75 µM | DU-145 1.15 µM | HOP-92 1.49 µM | EKVX 20 µM | SK-OV-3 61.1 µM | Hs-578T 7.4 µM | PC-3 16.9 µM
active: A498 0.0693 µM | SF-295 0.209 µM | HCC 2998 < 0.0279 µM | SR 0.604 µM
16.1 µM: HCT-15

C=C1C(=O)O[C@@H]2C[C@@H]3[C@]4(CC[C@]5(C)[C@@H]([C@H](C)CC/C=C(\C)C=O)CC[C@@]35C)C[C@]4(CCC(=O)OC)[C@H]12
inactive: A498 2.79 µM | U-251 1.38 µM | SNB-75 2.4 µM | TK-10 2.46 µM | SK-MEL-2 1.77 µM | BT-549 2.03 µM | SF-295 2.14 µM | M14 1.36 µM | COLO 205 2.39 µM | DU-145 1.79 µM | HOP-92 1.94 µM | HCC 2998 2.14 µM | EKVX 2.99 µM | SK-OV-3 3.52 µM | Hs-578T 3.01 µM | PC-3 1.9 µM
1.78 µM: HCT-15
active: SK-MEL-5 0.83 µM | HCT-116 0.771 µM | SR 0.993 µM

COc1cc(C2c3cc4c(cc3OC(NCCc3ccccc3)C2C)OCO4)cc(OC)c1OC (stereo not given)
inactive: TK-10 26.5 µM | HOP-92 4.67 µM | EKVX 1.56 µM
active: A498 0.574 µM | U-251 0.348 µM | SNB-75 0.198 µM | SK-MEL-5 0.224 µM | HCT-116 0.409 µM | SK-MEL-2 0.393 µM | BT-549 0.617 µM | SF-295 0.2 µM | M14 0.356 µM | COLO 205 0.242 µM | DU-145 0.431 µM | HCC 2998 0.282 µM | SK-OV-3 0.397 µM | Hs-578T 0.138 µM | PC-3 0.336 µM | SR 0.174 µM
0.385 µM: HCT-15

CCOC(=O)c1ccc(-c2cccs2)[nH]1
26.9 µM: HCT-15
inactive: A498 > 55.5 µM | U-251 > 76.4 µM | SNB-75 > 100 µM | SK-MEL-5 30.8 µM | HCT-116 68.5 µM | TK-10 > 65.3 µM | SK-MEL-2 > 100 µM | BT-549 > 63.1 µM | SF-295 > 100 µM | M14 63.5 µM | COLO 205 60.7 µM | DU-145 49 µM | HOP-92 12.1 µM | HCC 2998 > 100 µM | EKVX 38.8 µM | SK-OV-3 > 62.7 µM | Hs-578T 76.9 µM | PC-3 72.6 µM | SR 54.7 µM

CCCCCC/C=C\CCCCCCCCCC1=CC(=O)C=C(OC)C1=O [IRISQUINONE A]
active: U-251 0.713 µM
2.1 µM: HCT-15
inactive: A498 5.82 µM | SNB-75 2.43 µM | SK-MEL-5 2.54 µM | HCT-116 3.43 µM | TK-10 6.05 µM | SK-MEL-2 4.34 µM | BT-549 2.16 µM | SF-295 3.6 µM | M14 4.19 µM | COLO 205 1.63 µM | DU-145 5.62 µM | HOP-92 2.52 µM | HCC 2998 8.24 µM | EKVX 3.57 µM | SK-OV-3 4.36 µM | Hs-578T 7.36 µM | PC-3 1.81 µM | SR 2.72 µM

Ic1cccc(/C=C/CN2CCN(CCOC(c3ccccc3)c3ccccc3)CC2)c1
inactive: A498 16.7 µM | U-251 13.6 µM | SNB-75 11.5 µM | SK-MEL-5 14.3 µM | HCT-116 12.6 µM | TK-10 16.1 µM | SK-MEL-2 17.7 µM | BT-549 16.8 µM | SF-295 17.5 µM | M14 14.6 µM | COLO 205 8.51 µM | DU-145 13.2 µM | HOP-92 14.4 µM | HCC 2998 6.97 µM | EKVX 17.7 µM | SK-OV-3 21.6 µM | Hs-578T 28 µM | PC-3 17.5 µM | SR 4.16 µM
14.2 µM: HCT-15

COC(=O)NC1C(C)OC(OC2C/C=C(/C)C3C=CC4C(OC5CC(OC6CCC(OC7CC(O)C(OC8CCC(O)C(C)O8)C(C)O7)C(C)O6)C(OC(C)=O)C(C)O5)C(C)CC(C)C4C3(C)/C(O)=C3/C(=O)OC4(CC(C=O)=CC(O)C4/C=C\2C)C3=O)CC1(C)[N+](=O)[O-] (stereo not given)
inactive: SNB-75 1.75 µM | TK-10 1.61 µM | DU-145 1.58 µM | EKVX 1.85 µM | SK-OV-3 2.44 µM | PC-3 1.57 µM
0.832 µM: HCT-15
active: A498 0.668 µM | U-251 0.342 µM | SK-MEL-5 0.82 µM | HCT-116 0.69 µM | SK-MEL-2 0.475 µM | BT-549 1.04 µM | SF-295 0.993 µM | M14 1.07 µM | COLO 205 1.1 µM | HOP-92 1.06 µM | HCC 2998 0.951 µM | Hs-578T 0.282 µM | SR 0.857 µM

Reference: ChEMBL document CHEMBL1201862, “PubChem BioAssay data set” (2004)
